# From article doi:10.1101/2025.10.10.681657 (bioRxiv, 2025)
# Legend:
# [1] = biological target: U4/U6 snRNA construct (92 nt); assay: SPR binding to U4/U6 snRNA construct (92 nt); set-up: species or system yeast; conditions: 92 nt RNA, steady-state fit; >100 = signal appeared at 100 μM but failed to fit
# Description: SPR experiments were carried out using an SPR optical biosensor (BIAcore 3000, Cytiva, USA) based on reported methods with minor modifications.[35] To avoid RNA degradation during long-time injections, the whole microfluidic system was washed by priming 50% RNase Zap buffer and RNase-free water one day before the experiments. Then, by using running buffer (1xPBS, pH7.4, 0.005% Tween 20, 5% DMSO) at a flow rate of 5 μL/min, the binding assays were performed. In brief, a CM5 chip surface coated with carboxylated dextran was activated by standard EDC/NHS amine-coupling protocol and then conjugated with streptavidin (200 ng/mL in 10 mM sodium acetate buffer, pH 4.5) for 30 min, resulting in 4000~6000 response units (RUs) signal. After streptavidin conjugation, the surface was deactivated (1 M ethanolamine, pH 8.5) for 10 min and regenerated (10 mM NaOH) for 2 min to remove unbound SA. Then, the folded U4/U6 RNA with biotin-label at 5′ end was prepared (according to the above-mentioned method) at 5 μM and injected in flow-cell (Fc) 2 for 30 min while Fc1 was kept blank as a reference. Then, the system continued flowing the running buffer until the baseline was stable before future steps.
# To detect binding between small molecules and U4/U6 snRNA, a 50 μL compound solution was applied to both Fc1 and Fc2 channels simultaneously at a higher flow rate (25 μL/min). The binding curve contains 120 s association and 200 s dissociation. A pulse of 10 mM NaOH injection was used for regeneration if needed. To measure the dissociation constant (KD), titrations of compound solutions with a serial dilution were applied. The KD value was then calculated by fitting the binding curves based on a steady-state model in BIAevaluation 4.0 software and plotted in GraphPad Prism 9.
# [2] = system: U4/U6 snRNA construct 92 nt (WT, No. 1) (RNA, junction) GGCCUUAUGCACGGGAAAUACGCAUAUCAGUGAGGAUUCGUCCGAGAUUGUGUUUUUGCUGGUGUAAAUCAGCAGUUCCCCUGCAUAAGGCU; assay: SPR steady state; conditions: 1x PBS, pH 7.4, 0.005% Tween 20, 5% DMSO
SMILES,Kd [1] [µM],KD [2] [µM],"KD ([2]; signal at 100 μM, not fitted) [µM]"
CCc1nnc(-c2nnc(NCCN(C)C)c3ccccc23)o1 [Compound 3],29.2 ± 8.6,29.2 ± 8.6,–
CCc1nnc(-c2nnc(NCCN(CC)CC)c3ccccc23)o1 [Compound 4],> 100,–,> 100
CCCCNc1nnc(-c2nnc(CC)o2)c2ccccc12 [Compound 5],> 100,–,–
CCc1nnc(-c2nnc(NCCOC)c3ccccc23)o1 [Compound 6],> 100,–,–
CCc1nnc(-c2nnc(NCCCOC)c3ccccc23)o1 [Compound 7],> 100,–,–
CCc1nnc(-c2nnc(NCc3cccnc3)c3ccccc23)o1 [Compound 8],> 100,–,–
CCc1nnc(-c2nnc(NCCCN3CCOCC3)c3ccccc23)o1 [Compound 9],61.3 ± 38.9,61.3 ± 38.9,–
CCc1nnc(-c2nnc(NCCCN3CCN(C)CC3)c3ccccc23)o1 [Compound 10],51.4 ± 8,51.4 ± 8.0,–
CCc1nnc(-c2nnc(NCCC(C)C)c3ccccc23)o1 [Compound 11],> 100,–,–
CCN(CC)CCNc1nnc(-c2nnc(C3CC3)o2)c2ccccc12 [Compound 12],24.2 ± 7,24.2 ± 7.0,–
COCCNc1nnc(-c2nnc(C3CC3)o2)c2ccccc12 [Compound 13],> 100,–,–
CN(C)CCNc1nnc(-c2nc(C3CC3)no2)c2ccccc12 [Compound 14],32.8 ± 11,32.8 ± 11.0,–
CCN(CC)CCNc1nnc(-c2nc(C3CC3)no2)c2ccccc12 [Compound 15],23.4 ± 6,23.4 ± 6.0,–
CCCCNc1nnc(-c2nc(C3CC3)no2)c2ccccc12 [Compound 16],> 100,–,–
COCCNc1nnc(-c2nc(C3CC3)no2)c2ccccc12 [Compound 17],> 100,–,–
c1cncc(CNc2nnc(-c3nc(C4CC4)no3)c3ccccc23)c1 [Compound 18],> 100,–,–
c1ccc2c(-c3nc(C4CC4)no3)nnc(NCCN3CCOCC3)c2c1 [Compound 19],34.5 ± 11.3,34.5 ± 11.3,–
c1ccc2c(-c3nc(C4CC4)no3)nnc(NCCCN3CCOCC3)c2c1 [Compound 20],42.1 ± 8.6,42.1 ± 8.6,–
CN1CCN(CCCNc2nnc(-c3nc(C4CC4)no3)c3ccccc23)CC1 [Compound 21],23 ± 5.3,23.0 ± 5.3,–
CN(C)CCCNc1nnc(-c2nc(-c3ccc(F)cc3)no2)c2ccccc12 [Compound 23],11.9 ± 7.1,11.9 ± 7.1,–
Fc1ccc(-c2noc(-c3nnc(NCc4cccnc4)c4ccccc34)n2)cc1 [Compound 24],> 100,–,> 100
CN1CCN(CCNc2nnc(-c3nc(-c4ccc(F)cc4)no3)c3ccccc23)CC1 [Compound 25],13.9 ± 3.2,13.9 ± 3.2,–
